Reference: patent EP1105515B1, “ALPHA 2,8/2,9 POLYSIALYLTRANSFERASE” (THE SCRIPPS RESEARCH INSTITUTE, priority 1998, dated 2000)

Test system: neuS gene product of E.coli K92 expressed in BL21(DE3)
Assay: Sialyltransferase assay: substrate specificity for acceptor substrates (transfer of 14C-NeuAc from CMP[14C]NeuAc)
Format: biochemical
Conditions: for Total sialic acid transferred / cpm obtained (per 60 ul reaction): 1 (M acceptor, 9 nmol CMP[14C]NeuAc (8000 cpm/nmol) as donor, 37 °C, 1 hr, 20 (g of 40K Sup; for Total sialic acid transferred: per 60 ul reaction; for cpm obtained (per 60 ul reaction): product spot on DEAE-cellulose TLC counted; for suitability as acceptor substrate (in words): cell-free fractions (15 K Sup, 40 K Sup, pellet), CMP[14C]NeuAc as donor
Experimental: The assay was carried out essentially as described by Vimr et al (Steenbergen, S. M. et al. (1992) J. Bacteriol. 174 : 1099-1108) with the following modifications : after harvesting, the cells were washed three times with 25 mM Tris HCI (pH 8. 0) and then resuspended in 25 mM Tris HCl (pH 8. 0) containing 5 mM MgCl2, 5 mM dithiothreitol (DTT), and 1 (1/mL protease inhibitor cocktail (Sigma). Cells were lysed three times by using a French Press (AMINCO; 1, 500 psi). The cell debris was removed by centrifugation twice at 15, 000 rpm and the supernatant was collected (termed the 15 K Sup). This supernatant was then centrifuged again at 100,000x g (~ 40 K rpm) using a Beckman ultracentrifuge (Model L5-50). Both the supernatant (termed the 40 K Sup) and the pellet were saved. The pellet was resuspended in a buffer containing 25 mM Tris-HCI, 5 mM MgCl2, 5 mM DTT, and 0.1% Triton CF-54. The supernatants and the pellet were stored on ice, and used for assay within 2 h.
Without the addition of acceptor, the endogenous enzyme activity was determined. The exogenous activity was then detected by addition of sialic acid as acceptor and CMP[^14C]NeuAc as donor in a reaction buffer containing 25 mM Tris-HCl (pH 8.0), 5 mM MgCl2, 5 mM DTT, and 0.5% Triton CF-54. Other substrates were also used, including colominic acid. Both the endogenous and exogenous enzyme activity assays measure the transfer of ^14C-labeled NeuAc to the acceptor. Unreacted radiolabeled substrates were seperated by DEAE-cellulose TLC (n-propanol/14M NH4OH/H2O:: 6 : 1: 3) or by Sephadex G-25 column chromatography. Radioactivity remaining at the origin and/or at the top of the TLC plate or the product obtained at the void volume of Sephadex G-25 column, was quantitated by liquid scintillation spectrometry. For analysis using Sephadex G-25 column chromatography, a column (1 cm x 3.5 cm) of Sephadex G-25 (Pharmacia) in water was prepared. The radiolabeled cell-free reaction mixture (60 (1) was loaded and washed with 1.5 ml of water, which was collected and counted. In some experiments, the activity was determined by separating the unused CMP[^14C]NeuAc by Dowex 1X8 (phosphate form) column chromatography (Williams, M. A. et al. (1995) Glycoconj. J. 12: 755 - 761). The initial rates were estimated graphically, and activity was expressed as pmoles of sialic acid transferred per hour.
The reaction mixture (60 (l) contained 1 (M each of the following acceptors and 9 nmol of CMP[^14C]NeuAc (specific activity: 8000 cpm/nmol) as donor substrate. The reactions were carried out at 37 °C for 1 hr using 20 (g of 40K Sup as mentioned in 'Materials and Methods.' The reaction mixture (1 (1) was spotted on a plastic backed DEAE-cellulose TLC plate, and ran in n-propanol:14.5M NH4OH:water :: 6:1:3. After air-drying, the plate was exposed to Kodak's XAR-5 film for overnight at -70° C. The area corresponding to the reaction product was marked, cut and then counted in scintillation fluid.

Molecule	Total sialic acid transferred	cpm obtained (per 60 ul reaction)	suitability as acceptor substrate (in words)	suitability as acceptor substrate (in words) (listed as neuraminic acid)
CC(=O)N[C@H]1[C@H]([C@H](O)[C@H](O)COC(C)=O)OC(O)(C(=O)O)C[C@@H]1O (stereo partly drawn) [9-O-acetyl sialic acid]	110 pmol	900 cpm	not well accepted	–
CC(=O)N[C@H]1[C@H]([C@H](O)[C@H](O)CO)O[C@@](O[C@H](CO)[C@@H](O)[C@@H]2OC(O)(C(=O)O)C[C@H](O)[C@H]2NC(C)=O)(C(=O)O)C[C@@H]1O (stereo partly drawn) [Dimer]	140 pmol	1080 cpm	poor acceptors	–
CC(=O)N[C@H]1[C@H]([C@H](O)[C@H](O)CO)OC(O)(C(=O)O)C[C@@H]1O (stereo partly drawn) [Monomer, sialic acid]	470 pmol	3780 cpm	good acceptors	best substrate
CC(=O)N[C@H]1[C@H]([C@H](O)[C@H](O)CO)O[C@@](O[C@H](CO)[C@@H](O)[C@@H]2O[C@@](O[C@H](CO)[C@@H](O)[C@@H]3OC(O)(C(=O)O)C[C@H](O)[C@H]3NC(C)=O)(C(=O)O)C[C@H](O)[C@H]2NC(C)=O)(C(=O)O)C[C@@H]1O (stereo partly drawn) [Trimer]	140 pmol	1560 cpm	poor acceptors	–
GT1b	130 pmol	1140 cpm	–	–
